Test system: non-substance dependent individual
Test: Case report: Flumazenil nasal spray before business dinners, control of alcohol intake
Format: in vivo
Source text: As in the co-pending applications, medication sprays are used to accomplish the above noted tasks. any one of several technologies may be used: • 1) A nasal spray applicator affecting the vein endings in the mucosal membranes of the nasal passage; • 2) A mouth spray affecting the buccal mucosal membrane in the mouth area; • 3) A pulmonary inhaler aerosolization into the lungs; • 4) Any other delivery system that provides direct absorption through mucus membranes directly into the blood stream. For example, the nasal spray may be used by an individual to assist in maintaining control of his or her drinking on a frequent or daily basis because they or their loved ones feel their use of alcohol is excessive. The spray will also act as a behavior trigger to assist in reminding the individual or retraining the individual to mind the frequency, amount or setting of intake of alcohol. In this setting of spray-assisted control of alcohol use there is provided a positive reinforcement of successful moderation, and eventually, the spray assist should no longer be needed. From several hours before, and including even while the individual is already drinking, the user of this nasal spray simply squirts one to three doses into each nostril in order to substantially decrease the total consumption of alcohol at any one drinking session. The duration of the effect will vary from individual to individual. The administration of the spray may be repeated as often as one wishes over the period or course of drinking to achieve the desired results, that is, a reduction in the use of alcohol, whether in total amount or in rapidity of alcohol ingestion. Case Report: A non-substance dependent individual ([…]) used this nasal spray by spraying two squirts of the medication “Flumazenil” into each nostril before business dinners on two separate occasions. Without this medication, their usual pattern was the ingestion of one to two martinis before and at the beginning of the meal, followed by one to two glasses of wine during and after the meal.

CCOC(=O)c1ncn2c1CN(C)C(=O)c1cc(F)ccc1-2 [Flumazenil]
effect of the alcohol on their thinking and feeling (two squirts into each nostril before business dinner, each of two occasions, self-reported): less of an effect on their thinking and feeling than usual | actual intake of wine (two squirts into each nostril before business dinner, each of two occasions, usual pattern without medication one to two glasses of wine): less than one glass of wine | actual intake of martini (two squirts into each nostril before business dinner, each of two occasions, usual pattern without medication one to two martinis): less than one martini | interest in the alcoholic beverages (two squirts into each nostril before business dinners, two separate occasions, one individual): substantially reduced

Reference: patent US20060263304A1, “Method of controlling alcohol intake and reversing alcohol effects” (priority 2005, published 2006)
